We go through 4 compounds from ChEMBL document CHEMBL6078666, “Discovery of Novel Coumarin Pleuromutilin Derivatives as Potent Anti-MRSA Agents” (J Med Chem, 2024).

A word on the MIC: it is the lowest concentration found to suppress growth.

Holding throughout (format): functional
For assay [1], the system named is Staphylococcus epidermidis. Kind of assay: Ratio of MBC to MIC against methicillin-resistant Staphylococcus epidermidis clinical isolate 202409454.
The subject of assay [2] is Streptococcus pneumoniae. Kind of assay: Antibacterial activity against penicillin-intermediate Streptococcus pneumoniae ATCC 49619 assessed as bacterial growth inhibition measured after 20 hrs by broth dilution method. A general note: In broth dilution the organism is exposed to a series of concentrations in liquid medium.
Assay [3] deals with Enterococcus faecium. Put plainly: Ratio of MBC to MIC against vancomycin-resistant Enterococcus faecium clinical isolate 202308456.
Assay [4] relates to Enterococcus faecium. Kind of assay: Antibacterial activity against vancomycin-resistant Enterococcus faecium ATCC 700221 assessed as bacterial growth inhibition measured after 20 hrs by broth dilution method.
For assay [5], the system named is Staphylococcus epidermidis. Put plainly: Antibacterial activity against Staphylococcus epidermidis ATCC 51625 assessed as bacterial growth inhibition measured after 20 hrs by broth dilution method.
Assay [6] concerns Streptococcus pneumoniae. Kind of assay: Antibacterial activity against penicillin-resistant Streptococcus pneumoniae ATCC 51916 assessed as bacterial growth inhibition measured after 20 hrs by broth dilution method.
The test system of assay [7] is Streptococcus pneumoniae. Kind of assay: Ratio of MBC to MIC against penicillin-resistant Streptococcus pneumoniae ATCC 51916.
The test system of assay [8] is Streptococcus pneumoniae. Put plainly: Ratio of MBC to MIC against penicillin-intermediate Streptococcus pneumoniae ATCC 49619.
In assay [9] the test system is Staphylococcus aureus. Kind of assay: Ratio of MBC to MIC against Staphylococcus aureus ATCC 43300.
For assay [10], the system named is Staphylococcus epidermidis. Kind of assay: Antibacterial activity against methicillin-resistant Staphylococcus epidermidis clinical isolate 202409139 assessed as bacterial growth inhibition measured after 20 hrs by broth dilution method.
Assay [11] deals with Enterococcus faecium. Kind of assay: Antibacterial activity against vancomycin-resistant Enterococcus faecium clinical isolate 202308456 assessed as bacterial growth inhibition measured after 20 hrs by broth dilution method.
The test system of assay [12] is Enterococcus faecium. Put plainly: Ratio of MBC to MIC against vancomycin-resistant Enterococcus faecium ATCC 700221.
For assay [13], the system named is Staphylococcus aureus. Kind of assay: Antibacterial activity against methicillin-resistant Staphylococcus aureus clinical isolate 202405157 assessed as bacterial growth inhibition measured after 20 hrs by broth dilution method.
For assay [14], the system named is Staphylococcus aureus. Kind of assay: Antibacterial activity against methicillin-resistant Staphylococcus aureus clinical isolate 202313160 assessed as bacterial growth inhibition measured after 20 hrs by broth dilution method.
Assay [15] relates to Enterococcus faecium. Kind of assay: Antibacterial activity against vancomycin-resistant Enterococcus faecium ATCC 51559 assessed as bacterial growth inhibition measured after 20 hrs by broth dilution method.
For assay [16], the system named is Staphylococcus epidermidis. Kind of assay: Antibacterial activity against methicillin-resistant Staphylococcus epidermidis clinical isolate 202409454 assessed as bacterial growth inhibition measured after 20 hrs by broth dilution method.
The subject of assay [17] is Staphylococcus aureus. Kind of assay: Antibacterial activity against methicillin-resistant Staphylococcus aureus ATCC 43300 assessed as bacterial growth inhibition measured after 20 hrs by broth dilution method.
Assay [18] deals with Staphylococcus epidermidis. Kind of assay: Ratio of MBC to MIC against Staphylococcus epidermidis ATCC 51625.
For assay [19], the system named is Staphylococcus aureus. Kind of assay: Antibacterial activity against methicillin-resistant Staphylococcus aureus clinical isolate 202311772 assessed as bacterial growth inhibition measured after 20 hrs by broth dilution method.
Assay [20] relates to Enterococcus faecium. Kind of assay: Ratio of MBC to MIC against vancomycin-resistant Enterococcus faecium ATCC 51559.
For assay [21], the system named is Staphylococcus aureus. Kind of assay: Ratio of MBC to MIC against methicillin-resistant Staphylococcus aureus clinical isolate 202405157.
In assay [22] the test system is Staphylococcus aureus. Put plainly: Antibacterial activity against methicillin-resistant Staphylococcus aureus ATCC 33591 assessed as bacterial growth inhibition measured after 20 hrs by broth dilution method.
In assay [23] the test system is Staphylococcus aureus. Put plainly: Ratio of MBC to MIC against methicillin-resistant Staphylococcus aureus ATCC 33591.
Assay [24] deals with Staphylococcus aureus. Put plainly: Ratio of MBC to MIC against methicillin-resistant Staphylococcus aureus clinical isolate 202313160.
Assay [25] deals with Staphylococcus aureus. Put plainly: Ratio of MBC to MIC against methicillin-resistant Staphylococcus aureus clinical isolate 202311772.

≈ marks a conversion by molar mass, not a printed value. A value given as a limit tells only on which side of the number the result lay.

Consider `C=C[C@]1(C)C[C@@H](OC(=O)CSCCOc2cc(=O)oc3cc(OC)ccc23)[C@]2(C)[C@H](C)CC[C@]3(CCC(=O)[C@H]32)[C@@H](C)[C@@H]1O`, for which the Ratio in assay [1] was >1; in the assay on Enterococcus faecium [3], >4; in the assay on Streptococcus pneumoniae [7], 2; in the assay with Streptococcus pneumoniae [8], >4; in the assay on Staphylococcus aureus [9], >4; in the assay with Enterococcus faecium [12], >4. The Ratio in assay [18] was >4; with Enterococcus faecium [20] it was 2; in the assay with Staphylococcus aureus [21] it was 4. Moreover, the MIC in the assay with Streptococcus pneumoniae [2] was determined as 0.125 µg/mL (≈ 0.204 µM); in the assay on Enterococcus faecium [4], 0.063 µg/mL (≈ 0.103 µM); in assay [5] it was 0.031 µg/mL (≈ 0.0506 µM); with Streptococcus pneumoniae [6], 0.063 µg/mL (≈ 0.103 µM); in [10] it was 0.125 µg/mL (≈ 0.204 µM); in the assay on Enterococcus faecium [11] it was 0.125 µg/mL (≈ 0.204 µM). The MIC was determined as 0.125 µg/mL (≈ 0.204 µM) in the assay on Staphylococcus aureus [13]; 0.125 µg/mL (≈ 0.204 µM) in the assay with Staphylococcus aureus [14]; 0.125 µg/mL (≈ 0.204 µM) with Enterococcus faecium [15]; 0.25 µg/mL (≈ 0.408 µM) in assay [16]; 0.125 µg/mL (≈ 0.204 µM) in the assay with Staphylococcus aureus [17]; 0.125 µg/mL (≈ 0.204 µM) with Staphylococcus aureus [19]. Also, in the assay on Staphylococcus aureus [22], the MIC was 0.063 µg/mL (≈ 0.103 µM).
As to `C=C[C@]1(C)C[C@@H](OC(=O)CSc2cc(=O)oc3cc(C)ccc23)[C@]2(C)[C@H](C)CC[C@]3(CCC(=O)[C@H]32)[C@@H](C)[C@@H]1O`, the MIC turned out to be 0.063 µg/mL (≈ 0.114 µM) in the assay on Streptococcus pneumoniae [2]; 0.031 µg/mL (≈ 0.0561 µM) in the assay on Enterococcus faecium [4]; 0.016 µg/mL (≈ 0.0289 µM) in assay [5]; 0.125 µg/mL (≈ 0.226 µM) in assay [10]; 0.063 µg/mL (≈ 0.114 µM) in the assay with Enterococcus faecium [11]; 0.125 µg/mL (≈ 0.226 µM) with Staphylococcus aureus [13]. In addition, the MIC in the assay on Staphylococcus aureus [14] amounted to 0.125 µg/mL (≈ 0.226 µM); with Enterococcus faecium [15], 0.063 µg/mL (≈ 0.114 µM); in [16], 0.063 µg/mL (≈ 0.114 µM); in the assay on Staphylococcus aureus [17], 0.063 µg/mL (≈ 0.114 µM); in the assay with Staphylococcus aureus [19], 0.031 µg/mL (≈ 0.0561 µM); in the assay with Staphylococcus aureus [22], 0.031 µg/mL (≈ 0.0561 µM). The Ratio is 2 in the assay on Enterococcus faecium [3]; >4 in the assay with Staphylococcus aureus [23]; 4 with Staphylococcus aureus [24]; >4 with Streptococcus pneumoniae [8]; 2 with Staphylococcus aureus [9]; 2 in the assay with Enterococcus faecium [12]. Moreover, the Ratio is recorded as >4 in assay [18], 2 in the assay with Enterococcus faecium [20] and 4 in the assay with Staphylococcus aureus [21].
`C=C[C@]1(C)C[C@@H](OC(=O)CSc2cc(=O)oc3ccccc23)[C@]2(C)[C@H](C)CC[C@]3(CCC(=O)[C@H]32)[C@@H](C)[C@@H]1O`: the Ratio in [1] is 2; with Enterococcus faecium [3] it was >4; with Streptococcus pneumoniae [7], 2; in the assay on Staphylococcus aureus [25], 2; with Streptococcus pneumoniae [8], >4; in the assay on Staphylococcus aureus [9] it was >4. The Ratio with Enterococcus faecium [12] is 1; in assay [18], >4; in the assay on Enterococcus faecium [20], 4; with Staphylococcus aureus [21], 2. Moreover, the MIC with Streptococcus pneumoniae [2] turned out to be 0.031 µg/mL (≈ 0.0575 µM); in the assay on Enterococcus faecium [4] it was 0.031 µg/mL (≈ 0.0575 µM); in assay [5], 0.016 µg/mL (≈ 0.0297 µM); in the assay with Streptococcus pneumoniae [6] it was 0.125 µg/mL (≈ 0.232 µM); in [10] it was 0.125 µg/mL (≈ 0.232 µM); in the assay with Enterococcus faecium [11], 0.125 µg/mL (≈ 0.232 µM). For the same compound, the MIC is 0.125 µg/mL (≈ 0.232 µM) with Staphylococcus aureus [13]; 0.125 µg/mL (≈ 0.232 µM) in the assay on Staphylococcus aureus [14]; 0.125 µg/mL (≈ 0.232 µM) in the assay with Enterococcus faecium [15]; 0.25 µg/mL (≈ 0.464 µM) in [16]; 0.063 µg/mL (≈ 0.117 µM) in the assay on Staphylococcus aureus [17]; 0.031 µg/mL (≈ 0.0575 µM) with Staphylococcus aureus [19]. For the same compound, the MIC in the assay on Staphylococcus aureus [22] is 0.031 µg/mL (≈ 0.0575 µM).
In the case of `C=C[C@]1(C)C[C@@H](OC(=O)CSc2cc(=O)oc3cc(F)ccc23)[C@]2(C)[C@H](C)CC[C@]3(CCC(=O)[C@H]32)[C@@H](C)[C@@H]1O`, the Ratio in assay [1] is on record as 2; with Enterococcus faecium [3], 1; in the assay with Streptococcus pneumoniae [7], 4; with Staphylococcus aureus [25] it was 2; in the assay on Streptococcus pneumoniae [8], 2; with Staphylococcus aureus [9], 4. Also, the values for the Ratio (in the assay with Enterococcus faecium [12]; in assay [18]; in the assay with Enterococcus faecium [20]) were 1, >4 and 1, respectively. Besides, the MIC with Streptococcus pneumoniae [2] came out at 0.063 µg/mL (≈ 0.113 µM); in the assay on Enterococcus faecium [4], 0.031 µg/mL (≈ 0.0557 µM); in [5], 0.031 µg/mL (≈ 0.0557 µM); in the assay on Streptococcus pneumoniae [6] it was 0.125 µg/mL (≈ 0.225 µM); in assay [10] it was 0.125 µg/mL (≈ 0.225 µM); in the assay on Enterococcus faecium [11] it was 0.031 µg/mL (≈ 0.0557 µM). Besides, the MIC in the assay with Staphylococcus aureus [13] came out at 0.063 µg/mL (≈ 0.113 µM); in the assay with Staphylococcus aureus [14], 0.063 µg/mL (≈ 0.113 µM); in the assay on Enterococcus faecium [15] it was 0.031 µg/mL (≈ 0.0557 µM); in assay [16], 0.063 µg/mL (≈ 0.113 µM); in the assay with Staphylococcus aureus [17], 0.063 µg/mL (≈ 0.113 µM); in the assay with Staphylococcus aureus [19], 0.031 µg/mL (≈ 0.0557 µM). Moreover, the MIC with Staphylococcus aureus [22] came to 0.031 µg/mL (≈ 0.0557 µM).
